Measured values published in US20250353819A1, “ARYL HYDANTOIN COMPOUNDS AND METHODS OF USE” (priority 2022, published 2025).
Read-outs that look alike come from different tables or passages of the source.

How the values were obtained:
LAPC4 cells = experiment: Androgen-dependent cell-based assay (DHT, LAPC4)
Procedure: Androgen-Dependent Cell-based Assay. As described by Jones and Diamond (2008), LAPC4 cells were cultured in phenol red free RPMI 1640 media supplemented with antibiotics and 10% FBS. […] […] Mean-effect plots (log[compound] vs. log[fractional effect]) were generated to determine the IC50 values for each test compound or combinations of test compounds at constant ratios.

[1] = Partition coefficient (Log D) by gradient HPLC; assay type: physicochemical; conditions: pH 7.4, chromatographic estimate; read-out: gLogD7.4
Excerpt: Partition Coefficient. Partition coefficient values (Log D) of the test compounds were estimated by correlation of their chromatographic retention properties against the characteristics of a series of standard compounds with known partition coefficient values using gradient HPLC (modification of a method reported by Lombardo et al., 2001).

[2] = In vitro metabolic stability, human liver microsomes; assay type: in vitro ADME; conditions: human liver microsomes; read-out: h CLint
Procedure: In Vitro Metabolic Stability. As described by Charman et al. (2020), metabolic stability assays were performed by incubating test compounds in liver microsomes at 37° C. and 0.4 mg/mL protein concentration. The metabolic reaction was initiated by the addition of an NADPH-regenerating system and quenched at various time points over a 60 min incubation period by the addition of acetonitrile containing diazepam as internal standard. Control samples (containing no NADPH) were included (and quenched at 2, 30 and 60 min) to monitor for potential degradation in the absence of cofactor.

[3] = Mouse exposure / pharmacokinetic studies; assay type: in vivo, mice; conditions: for half-life / clearance: iv, 1 mg/kg
[4] = Stability in human cryopreserved hepatocytes; assay type: in vitro ADME
[5] = Stability in dog cryopreserved hepatocytes; assay type: in vitro ADME
[6] = Stability in mouse cryopreserved hepatocytes; assay type: in vitro ADME
CYP 1A2 = CYP 1A2 (Homo sapiens (Human), UniProt P05177); experiment: CYP inhibition in human liver microsomes, 1A2; assay type: in vitro ADME
Chain of CYP 1A2 (P05177 whole entry): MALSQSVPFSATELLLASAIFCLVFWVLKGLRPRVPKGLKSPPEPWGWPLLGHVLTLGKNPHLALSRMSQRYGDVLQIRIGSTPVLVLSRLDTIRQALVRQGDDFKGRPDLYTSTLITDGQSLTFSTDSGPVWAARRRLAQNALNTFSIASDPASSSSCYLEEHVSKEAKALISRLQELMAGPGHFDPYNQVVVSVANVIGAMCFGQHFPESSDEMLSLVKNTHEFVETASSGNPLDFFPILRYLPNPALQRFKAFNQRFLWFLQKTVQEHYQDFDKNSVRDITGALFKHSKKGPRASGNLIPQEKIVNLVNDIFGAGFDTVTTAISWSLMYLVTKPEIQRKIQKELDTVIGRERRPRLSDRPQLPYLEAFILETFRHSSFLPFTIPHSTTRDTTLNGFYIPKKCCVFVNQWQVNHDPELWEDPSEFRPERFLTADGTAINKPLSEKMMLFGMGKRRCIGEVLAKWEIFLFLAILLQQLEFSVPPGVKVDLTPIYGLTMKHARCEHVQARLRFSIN

CYP 2C19 = CYP 2C19 (Homo sapiens (Human), UniProt P33261); experiment: CYP inhibition in human liver microsomes, 2C19; assay type: in vitro ADME
Chain of CYP 2C19 (P33261 whole entry): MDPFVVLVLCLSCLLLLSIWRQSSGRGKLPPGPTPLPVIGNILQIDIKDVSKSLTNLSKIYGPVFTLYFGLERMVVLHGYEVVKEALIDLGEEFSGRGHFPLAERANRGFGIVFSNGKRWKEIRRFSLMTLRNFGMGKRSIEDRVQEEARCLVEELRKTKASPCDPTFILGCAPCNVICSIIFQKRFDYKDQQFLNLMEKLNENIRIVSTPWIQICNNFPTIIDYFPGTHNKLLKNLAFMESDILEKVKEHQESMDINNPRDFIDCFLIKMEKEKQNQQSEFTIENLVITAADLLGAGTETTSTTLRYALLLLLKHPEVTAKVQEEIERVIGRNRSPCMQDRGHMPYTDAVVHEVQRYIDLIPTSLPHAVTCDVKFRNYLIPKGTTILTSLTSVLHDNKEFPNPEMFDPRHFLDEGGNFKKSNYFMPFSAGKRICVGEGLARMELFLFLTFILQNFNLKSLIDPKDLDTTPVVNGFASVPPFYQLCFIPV

[7] = Pharmacokinetics in male Sprague Dawley rats; assay type: in vivo, rat; conditions: rats, mean (n = 3); for half-life: read-out: Apparent t1/2 (converted)
Procedure: IV and oral formulations were prepared using the same method. On the day of dosing the solid compound was dissolved in DMSO prior to addition of a saline solution (0.9% w/v). The samples were then mixed using vortexing producing colourless solutions. The IV formulation was filtered through a 0.22 μm syringe filter prior to dosing and the oral formulation was dosed without filtration.
Samples of arterial blood were collected up to 168 h post-dose. Urine samples were not collected as animals were housed in bedded cages. Arterial blood was collected directly into borosilicate vials (at 4° C.) containing heparin as anticoagulant. Once collected, blood samples were centrifuged, supernatant plasma was removed and stored frozen (−80° C.) until analysis by LC-MS. A summary of the bioanalytical method and assay validation details is included in Tables 14 and 15.
Plasma concentration versus time data were analysed using non-compartmental methods (PKSolver Version 2.0). Standard calculations for each pharmacokinetic parameter are listed below.

LogD7.4 (shake flask) = conditions: pH 7.4
CYP 2D6 = CYP 2D6 (Homo sapiens (Human), UniProt P10635); experiment: CYP inhibition in human liver microsomes, 2D6
Chain of CYP 2D6 (P10635 whole entry): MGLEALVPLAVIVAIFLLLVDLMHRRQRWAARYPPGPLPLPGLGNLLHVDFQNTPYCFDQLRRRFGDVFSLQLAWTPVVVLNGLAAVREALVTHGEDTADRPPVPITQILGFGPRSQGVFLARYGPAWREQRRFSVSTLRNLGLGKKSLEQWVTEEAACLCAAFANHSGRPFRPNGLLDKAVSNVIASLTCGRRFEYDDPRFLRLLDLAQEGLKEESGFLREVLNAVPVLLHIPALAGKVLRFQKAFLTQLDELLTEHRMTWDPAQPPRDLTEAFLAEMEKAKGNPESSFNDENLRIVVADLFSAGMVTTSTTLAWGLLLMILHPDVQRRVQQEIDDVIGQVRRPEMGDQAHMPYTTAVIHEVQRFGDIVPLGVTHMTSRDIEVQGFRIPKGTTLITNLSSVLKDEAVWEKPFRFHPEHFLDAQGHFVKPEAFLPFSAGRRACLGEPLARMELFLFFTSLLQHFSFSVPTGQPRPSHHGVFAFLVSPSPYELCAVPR

[8] = mice, oral, mean dose 6.73 mg/kg
[9] = mice, oral, mean dose 13.5 mg/kg
[10] = mice, oral, mean dose 26.3 mg/kg
[11] = mice, oral, mean dose 55.6 mg/kg
[12] = mice, oral, mean dose 99.7 mg/kg

[2H]C([2H])([2H])C1(C([2H])([2H])[2H])NC(=O)N(c2ccc(F)c(C(C)(F)F)c2)C1=O [Compound IE, 3-(3-(1,1-difluoroethyl)-4-fluorophenyl)-5,5-bis(methyl-d3)imidazolidine-2,4-dione]
IC50 (LAPC4 cells; Homo sapiens, DHT-induced, androgen-dependent LAPC4 prostate cancer cell line, read-out: LAPC4 IC50): > 100 µM
inhibition of DHT-induced cell proliferation (LAPC4 cells; concentrations up to 100 μM): did not inhibit
chromatographic logD [1]: 2.5
microsomal CLint [2]: < 7 µL/min/mg
half-life ([3]; male, Swiss outbred, mouse, in vivo, IV 1 mg/kg, mice, read-out: apparent half-life (converted)): 30 h
clearance ([3]; male, Swiss outbred, mouse, in vivo, IV 1 mg/kg, mice, read-out: blood clearance): 0.59 mL/min/kg
half-life ([3]; male, Swiss outbred, mouse, in vivo, mice, IV, mean dose 1.0 mg/kg, read-out: Apparent t1/2 (converted)): 38 h
clearance ([3]; male, Swiss outbred, mouse, in vivo, mice, IV, mean dose 1.0 mg/kg, read-out: Plasma CL): 0.491 mL/min/kg
bioavailability ([3]; male, Swiss outbred, mouse, in vivo, po, mice, all doses 6.25 to 100 mg/kg, read-out: apparent oral bioavailability): ≥ 80%
AUC(0-t) ([3]; male, Swiss outbred, mouse, in vivo, 100 mg/kg PO in mice, read-out: AUC0-last): 1800 µg·h/mL
Cmax ([3]; male, Swiss outbred, mouse, in vivo, 100 mg/kg PO in mice, read-out: Cmax): 41000 ng/mL
Vd ([3]; male, Swiss outbred, mouse, in vivo, IV 1 mg/kg, mice, read-out: volume of distribution): 1.59 L/kg
AUC(0-t) ([3]; male, Swiss outbred, mouse, in vivo, mice, IV, mean dose 1.0 mg/kg, read-out: Plasma AUC0-48 h): 28.2 µg·h/mL
AUC(0-inf) ([3]; male, Swiss outbred, mouse, in vivo, mice, IV, mean dose 1.0 mg/kg, read-out: Plasma AUC0-inf): 33.9 µg·h/mL
Tmax ([3]; male, Swiss outbred, mouse, in vivo, mice, oral, mean dose 6.73 mg/kg): 3 h
AUC(0-t) ([3]; male, Swiss outbred, mouse, in vivo, mice, oral, mean dose 6.73 mg/kg, read-out: Plasma AUC0-48 h): 145 µg·h/mL
Cmax ([3]; male, Swiss outbred, mouse, in vivo, mice, oral, mean dose 6.73 mg/kg, read-out: Plasma Cmax): 3760 ng/mL
Tmax ([3]; male, Swiss outbred, mouse, in vivo, mice, oral, mean dose 13.5 mg/kg): 7 h
AUC(0-t) ([3]; male, Swiss outbred, mouse, in vivo, mice, oral, mean dose 13.5 mg/kg, read-out: Plasma AUC0-48 h): 320 µg·h/mL
Cmax ([3]; male, Swiss outbred, mouse, in vivo, mice, oral, mean dose 13.5 mg/kg, read-out: Plasma Cmax): 8590 ng/mL
Tmax ([3]; male, Swiss outbred, mouse, in vivo, mice, oral, mean dose 26.3 mg/kg): 7 h
AUC(0-t) ([3]; male, Swiss outbred, mouse, in vivo, mice, oral, mean dose 26.3 mg/kg, read-out: Plasma AUC0-48 h): 607 µg·h/mL
Cmax ([3]; male, Swiss outbred, mouse, in vivo, mice, oral, mean dose 26.3 mg/kg, read-out: Plasma Cmax): 14400 ng/mL
Tmax ([3]; male, Swiss outbred, mouse, in vivo, mice, oral, mean dose 55.6 mg/kg): 3 h
AUC(0-t) ([3]; male, Swiss outbred, mouse, in vivo, mice, oral, mean dose 55.6 mg/kg, read-out: Plasma AUC0-48 h): 1130 µg·h/mL
Cmax ([3]; male, Swiss outbred, mouse, in vivo, mice, oral, mean dose 55.6 mg/kg, read-out: Plasma Cmax): 28200 ng/mL
Tmax ([3]; male, Swiss outbred, mouse, in vivo, mice, oral, mean dose 99.7 mg/kg): 7 h
AUC(0-t) ([3]; male, Swiss outbred, mouse, in vivo, mice, oral, mean dose 99.7 mg/kg, read-out: Plasma AUC0-48 h): 1800 µg·h/mL
Cmax ([3]; male, Swiss outbred, mouse, in vivo, mice, oral, mean dose 99.7 mg/kg, read-out: Plasma Cmax): 40500 ng/mL
PlasmaVSS ([3]; mice, IV, mean dose 1.0 mg/kg): 1.6 L/kg
Apparent BA [3, 8]: 76%
Plasma AUC0-48 h/Dose [3, 8]: 21.5 (μg*h/mL)/(mg/kg)
Plasma Cmax/Dose [3, 8]: 0.559 (μg/mL)/(mg/kg)
Apparent BA [3, 9]: 84%
Plasma AUC0-48 h/Dose [3, 9]: 23.8 (μg*h/mL)/(mg/kg)
Plasma Cmax/Dose [3, 9]: 0.638 (μg/mL)/(mg/kg)
Apparent BA [3, 10]: 82%
Plasma AUC0-48 h/Dose [3, 10]: 23.1 (μg*h/mL)/(mg/kg)
Plasma Cmax/Dose [3, 10]: 0.547 (μg/mL)/(mg/kg)
Apparent BA [3, 11]: 72%
Plasma AUC0-48 h/Dose [3, 11]: 20.4 (μg*h/mL)/(mg/kg)
Plasma Cmax/Dose [3, 11]: 0.507 (μg/mL)/(mg/kg)
Apparent BA [3, 12]: 64%
Plasma AUC0-48 h/Dose [3, 12]: 18.0 (μg*h/mL)/(mg/kg)
Plasma Cmax/Dose [3, 12]: 0.407 (μg/mL)/(mg/kg)
CLint [4]: <2 μL/min/10^6
hepatocyte CLint ([4]; read-out: in vitro CLint): < 2000 µL/min/1e6 cells
CLint ([5]; Dog cryopreserved hepatocytes): <2 μL/min/10^6
hepatocyte CLint ([5]; dog cryopreserved hepatocytes, read-out: in vitro CLint): < 2000 µL/min/1e6 cells
CLint [6]: <2 μL/min/10^6
hepatocyte CLint ([6]; read-out: in vitro CLint): < 2000 µL/min/1e6 cells
IC50 (CYP 1A2; 1A2, read-out: CYP inhibition IC50): > 20 µM
CYP inhibition (CYP 1A2; CYP 1A2, concentrations up to 20 μM, human liver microsomes): did not inhibit
IC50 (CYP 2C19; 2C19, read-out: CYP inhibition IC50): > 20 µM
CYP inhibition (CYP 2C19; CYP 2C19, concentrations up to 20 μM, human liver microsomes): did not inhibit
AUC ([7]; male, Sprague Dawley, rat, in vivo, iv, 0.9 mg/kg, IV 0.9 mg/kg, read-out: Plasma AUCIV): 31.7 µg·h/mL
clearance ([7]; male, Sprague Dawley, rat, in vivo, iv, 0.9 mg/kg, IV 0.9 mg/kg, read-out: Plasma CL): 0.476 mL/min/kg
Cmax ([7]; male, Sprague Dawley, rat, in vivo, po, 0.9 mg/kg, PO 0.9 mg/kg, read-out: Plasma Cmax): 440 ng/mL
Tmax ([7]; male, Sprague Dawley, rat, in vivo, po, 0.9 mg/kg, PO 0.9 mg/kg, read-out: Tmax): 11 h
half-life ([7]; male, Sprague Dawley, rat, in vivo, IV 0.9 mg/kg): 32 ± 2 h
half-life ([7]; male, Sprague Dawley, rat, in vivo, PO 0.9 mg/kg): 39 h
Apparent t1/2 ([7]; IV 0.9 mg/kg): 32 h
PlasmaVSS ([7]; IV 0.9 mg/kg): 1.69 L/kg
BA ([7]; PO 0.9 mg/kg): 113%
Plasma AUCoral ([7]; PO 0.9 mg/kg): 36.0 H*ug/mL
LogD7.4 (shake flask) (LogD7.4 (shake flask)): 1.9
logD (LogD7.4 (shake flask)): 1.9
CYP inhibition (CYP 2D6; CYP 2D6, concentrations up to 20 μM, human liver microsomes): did not inhibit
IC50 (CYP 2D6; read-out: CYP inhibition IC50, 2D6): > 20 µM
